Structures can show the parent of a compound that is named as a salt.
Target: T1, α2δ subunit derived from porcine brain tissue (Sus scrofa, UniProt A0A287BIN3)
T1 construct: the α2δ subunit derived from porcine brain tissue; from tissue; host or cells: porcine brain tissue
Assay: radioligand binding assay using [3H]gabapentin
Details: [3H]gabapentin binding
Excerpt: The biological activity of the alpha-2-delta ligands of the invention may be measured in a radioligand binding assay using [^3H]gabapentin and the α2δ subunit derived from porcine brain tissue (Gee N. S., Brown J. P., Dissanayake V. U. K., Offord J., Thurlow R., Woodruff G. N., J. Biol. Chem., 1996;271:5879-[…]). Results may be expressed in terms of μM or nM α2δ binding affinity.

T1 sequence (A0A287BIN3 25-1109): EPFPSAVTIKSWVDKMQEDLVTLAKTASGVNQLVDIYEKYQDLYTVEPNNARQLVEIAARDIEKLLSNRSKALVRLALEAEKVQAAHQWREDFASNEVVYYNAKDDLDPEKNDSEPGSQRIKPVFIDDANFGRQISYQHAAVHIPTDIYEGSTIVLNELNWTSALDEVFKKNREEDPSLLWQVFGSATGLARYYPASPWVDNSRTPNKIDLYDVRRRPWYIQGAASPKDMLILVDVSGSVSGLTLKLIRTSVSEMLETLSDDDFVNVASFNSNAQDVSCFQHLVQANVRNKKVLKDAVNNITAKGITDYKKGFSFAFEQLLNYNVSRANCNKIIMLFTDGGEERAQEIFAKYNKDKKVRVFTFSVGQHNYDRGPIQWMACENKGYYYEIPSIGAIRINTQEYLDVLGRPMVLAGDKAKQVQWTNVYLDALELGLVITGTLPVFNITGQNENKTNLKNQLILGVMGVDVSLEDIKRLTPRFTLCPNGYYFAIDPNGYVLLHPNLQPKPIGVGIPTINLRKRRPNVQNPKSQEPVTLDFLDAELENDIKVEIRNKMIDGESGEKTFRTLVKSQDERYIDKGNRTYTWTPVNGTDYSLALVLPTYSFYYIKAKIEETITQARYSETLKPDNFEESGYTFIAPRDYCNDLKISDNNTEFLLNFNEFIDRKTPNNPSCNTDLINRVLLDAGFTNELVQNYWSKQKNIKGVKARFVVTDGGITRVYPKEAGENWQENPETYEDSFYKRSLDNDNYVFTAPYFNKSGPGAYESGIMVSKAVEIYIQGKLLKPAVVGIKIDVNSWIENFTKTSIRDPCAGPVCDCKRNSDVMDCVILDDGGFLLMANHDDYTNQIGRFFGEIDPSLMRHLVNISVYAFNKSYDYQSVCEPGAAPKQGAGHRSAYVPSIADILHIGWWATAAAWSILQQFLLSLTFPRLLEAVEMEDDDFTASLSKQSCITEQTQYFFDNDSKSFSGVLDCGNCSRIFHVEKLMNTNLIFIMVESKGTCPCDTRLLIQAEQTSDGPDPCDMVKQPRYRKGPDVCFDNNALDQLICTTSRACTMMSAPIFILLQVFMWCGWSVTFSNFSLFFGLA

Row | SMILES | IC50 [nM]
1 | O=C(O)[C@@H]1C[C@H](Oc2cccc(Cl)c2)CN1 [Example 8, (2S,4S)-4-(3-Chloro-phenoxy)-pyrrolidine-2-carboxylic acid] | 5
2 | O=C(O)[C@@H]1C[C@H](OCc2ccc(Cl)cc2)CN1 [Example 2, (2S,4S)-4-[(4-chlorobenzyl)oxyl]-pyrrolidine-2-carboxylic acid] | 119
3 | COc1cccc(C[C@@H]2CN[C@H](C(=O)O)C2)c1 [Example 14, (2S,4S)-4-(3-Methoxy-benzyl)-pyrrolidine-2-carboxylic acid mono hydrochloride salt] | 9
4 | O=C(O)[C@@H]1C[C@H](Sc2ccccc2)CN1 [Example 4, (2S,4S)-4-phenylthio-pyrrolidine-2-carboxylic acid] | 72
5 | O=C(O)[C@@H]1C[C@H](Cc2cccc(F)c2)CN1 [Example 10, (2S,4S)-4-(3-Fluoro-benzyl)-pyrrolidine-2-carboxylic acid mono hydrochloride salt] | 11
6 | O=C(O)[C@@H]1C[C@H](Oc2ccc3ccncc3c2)CN1 [Example 7] | 210

Next, values leading:

Row | IC50 [nM] | SMILES
7 | 15 | O=C(O)[C@@H]1C[C@H](Cc2cccc(F)c2F)CN1 [Example 11, (2S,4S)-4-(2.3-Difluoro-benzyl)-pyrrolidine-2-carboxylic acid mono-hydrochloride salt]
8 | 7 | O=C(O)[C@@H]1C[C@H](Cc2cc(F)ccc2F)CN1 [Example 12, (2S,4S)-4-(2,5-Difluoro-benzyl)-pyrrolidine-2-carboxylic acid mono hydrochloride salt]
